These results are taken from ChEMBL document CHEMBL1157121, “Diterpenoids from the feces of Trogopterus xanthipes” (J Nat Prod, 2010).

Usually IC50 stands for the point on the concentration scale where inhibition reaches its midpoint. Lower therefore signals higher potency.

What all share (assay type): functional, cell-based
One test has as its system HepG2. Briefly: Cytotoxicity against human HepG2 cells after 48 hrs by MTT assay. As to conditions: HepG2, 48 h. On the technique in general: Tetrazolium dyes change colour on reduction, which living cells bring about.
The subject of another test is HL-60. Briefly: Cytotoxicity against human HL60 cells after 48 hrs by MTT assay. Particulars: HL-60, 48 h.
In a further test the test system is Jurkat. Briefly: Cytotoxicity against human Jurkat cells after 48 hrs by MTT assay.
For a further test, the system named is U-937. Briefly: Cytotoxicity against human U937 cells after 48 hrs by MTT assay. As to conditions: U-937, 48 h.

Turning to `CC(C)c1c(O)ccc2c1C[C@@H](O)[C@H]1C(C)(C)C(=O)CC[C@]21C` [TROGOPTEROID E], the concentration for half-maximal inhibition (IC50) with HepG2, with HL-60, with Jurkat and with U-937 was over 40 µM throughout.

In the case of `CC(C)c1c(O)ccc2c1CC[C@H]1[C@@](C)(CO)C(=O)CC[C@]21C` [TROGOPTEROID D], the IC50 with HepG2, in the test with HL-60, in the test on Jurkat and in the test with U-937 was over 40 µM each time.

Regarding `CC[C@@]1(O)C(=O)OCc2c1cc1n(c2=O)Cc2cc3cc(O)ccc3nc2-1` [HYDROXYCAMPTOTHECIN], the IC50 in the test with HepG2 was found to be 3.7 µM; in the test on HL-60, 0.04 µM; in the test with Jurkat, 0.03 µM; with U-937 it was 0.11 µM.

Consider `C=C[C@]1(C)C=C2CC[C@H]3[C@H](C)C(=O)CC[C@]3(C)[C@H]2CC1`, for which the IC50 in the test with HepG2, in the test with HL-60, with Jurkat and with U-937 was over 40 µM throughout.

Take `C=C[C@@]1(C)CC[C@H]2C(=CC[C@H]3C(C)(C)C(=O)CC[C@]23C)C1`: the IC50 with HepG2 was 32.9 µM; in the test with HL-60 it was over 40 µM; in the test on Jurkat, over 40 µM; in the test on U-937 it was over 40 µM.

Turning to `C=C[C@]1(C)C[C@]2(O)CC[C@H]3C(C)(C)C(=O)CC[C@]3(C)[C@H]2CC1=O` [TROGOPTEROID B], the IC50 in the test on HepG2, in the test with HL-60, with Jurkat and in the test with U-937 was over 40 µM each time.

For the molecule `C=C[C@@]1(C)CCC2=C(CC[C@H]3C(C)(C)[C@@H](O)CC[C@]23C)C1`, the IC50 in the test with HepG2, in the test on HL-60, with Jurkat and in the test on U-937 was over 40 µM throughout.

As to `CC(C)c1cc2c(cc1O)CC[C@H]1C(C)(C)CCC[C@]21C` [SEMPERVIROL], the IC50 in the test on HepG2, in the test on HL-60, in the test on Jurkat and with U-937 was over 40 µM throughout.

On to `CC(C)c1cc2c(cc1O)C[C@@H](O)[C@H]1[C@@](C)(CO)CCC[C@]21C` [TROGOPTEROID F], for which the IC50 in the test on HepG2, in the test on HL-60, in the test with Jurkat and in the test on U-937 was over 40 µM in each case.

`CC(C)c1c(O)ccc2c1CC[C@H]1[C@@](C)(CO)C(=O)C=C[C@]21C` [TROGOPTEROID G]: the IC50 in the test with HepG2, with HL-60, with Jurkat and in the test with U-937 was over 40 µM in each case.

With `C=C[C@@]1(C)CC[C@H]2C(=CC[C@H]3C(C)(C)[C@@H](O)CC[C@]23C)C1` [ISOPIMARANE], the IC50 with HepG2, with HL-60, in the test on Jurkat and in the test with U-937 was over 40 µM each time.

Turning to `CC(C)c1c(O)ccc2c1CC[C@H]1C(C)(C)[C@@H](O)CC[C@]21C`, the IC50 was over 40 µM with HepG2, 24.3 µM in the test with HL-60, over 40 µM in the test on Jurkat and 24.7 µM with U-937.

As to `CC(C)c1ccc2c(c1O)C[C@@H](O)[C@H]1[C@@](C)(CO)CCC[C@]21C` [MACROPHYNIN E], the IC50 with HepG2, with HL-60, in the test with Jurkat and with U-937 was over 40 µM throughout.

As to `C=C[C@@]1(C)CC[C@H]2[C@@](O)(CC[C@H]3[C@@](C)(CO)CCC[C@@]32C)C1` [AKHDARDIOL], the IC50 with HepG2, in the test on HL-60, with Jurkat and with U-937 was over 40 µM each time.

`CC1=C2C=C[C@]34C[C@](C)(CC[C@@H]3[C@@]2(C)CCC1=O)C(=O)O4` [TROGOPTEROID A]: the IC50 in the test with HepG2, in the test with HL-60, with Jurkat and in the test on U-937 was over 40 µM in each case.

For `C=C[C@@]1(C)CC[C@H]2[C@@](O)(CC[C@H]3C(C)(C)C(=O)CC[C@@]32C)C1`, the IC50 in the test with HepG2, in the test on HL-60, in the test on Jurkat and with U-937 was over 40 µM each time.

Regarding `C=C[C@]1(C)CC2(O)CC[C@H]3C(C)(C)C(=O)C=C[C@]3(C)[C@H]2CC1=O` (stereo partly specified) [TROGOPTEROID C], the IC50 in the test on HepG2, in the test with HL-60, in the test on Jurkat and in the test with U-937 was over 40 µM each time.

For `C=C[C@]1(C)C=C2CC[C@H]3C(C)(C)C(=O)CC[C@]3(C)[C@H]2CC1`, the IC50 in the test on HepG2, in the test on HL-60, in the test on Jurkat and in the test on U-937 was over 40 µM throughout.

Consider `CC(C)c1cc2c(cc1O)[C@@]1(C)CCCC(C)(C)[C@@H]1CC2` [FERRUGINOL], for which the IC50 with HepG2 is over 40 µM; in the test with HL-60, over 40 µM; in the test with Jurkat, 35.1 µM; in the test on U-937, 19.7 µM.
